Reference: EP0365837B1 (DANA FARBER CANCER INSTITUTE, priority 1988, dated 1990)
Where “and” joins values, the source holds several entries; their conditions need not be identical. Equal entries are not always repeated. Where two headings read alike, the source gives them in different places. *1 amine or outer side, *2 acyl side, *3 side chain or, on linkers, in order; H or OH if unused. Where a SMILES comes first, the peptide text is derived from it. Bridges are numbered along the chain shown (N, C = ends). Roman numbers before positions name the chains, in order. [ ]: non-standard residue; d: D form. Actinocin(9to1) = Cc1c2oc3c(C)ccc(C(=O)[*:1])c3nc-2c(C(=O)[*:2])c(N)c1=O; NMeV = CN[C@H](C(=O)O)C(C)C; Sar = CNCC(=O)O

Key:
[1] = test system: Peripheral blood mononuclear cells (PBMC); conditions: Table 19, R x S; R6-5-D6 8 ng/ml, Azathioprine 1 ng/ml; no inhibitor 49,570
[2] = test system: Peripheral blood mononuclear cells (PBMC); assay: cells; conditions: Homo sapiens
[3] = test system: JY cells; assay: LFA-1 dependent aggregation of JY cells (qualitative and quantitative aggregation assays); assay type: cell-based; conditions: 50 ng/ml of PMA; quantitative assay, 200 rpm, 2 hours; SD = 8%, N = 6
Method: In order to assess the extent of cellular adhesion, aggregation assays were employed. Cell lines used in such assays were washed two times with RPMI 1640 medium containing 5 mM Hepes buffer (Sigma Chemical Co., St. Louis) and resuspended to a concentration of 2 x 10⁶ cells/ml. Added to flat-bottomed, 96-well microtiter plates (No. 3596; Costar, Cambridge, MA) were 50 »l of appropriate monoclonal antibody supernatant or 50 »l of complete medium with or without purified monoclonal antibodies, 50 »l of complete medium containing 200 ng/ml of the phorbol ester phorbol myristate acetate (PMA) and 100 »l of cells at a concentration of 2 x 10⁶ cells/ml in complete medium. This yielded a final concentration of 50 ng/ml PMA and 2 x 10⁵ cells/well. Cells were allowed to settle spontaneously, and the degree of aggregation was scored at various time points. […] In order to obtain a more quantitative estimate of cellular adhesion, reagents and cells were added to 5 ml polystyrene tubes in the same order as above. Tubes were placed in a rack on a gyratory shaker at 37°C. […] Percent aggregation was determined by the following equation: [formula] […]
As a second means of measuring adhesion, the quantitative assay described in Example 2 was used. […]

[4] = test system: human dermal fibroblasts; assay type: cell-based
Method: The kinetics of interleukin 1 and gamma interferon effects on ICAM-1 expression on dermal fibroblasts were determined using the ¹²⁵I goat anti-mouse IgG binding assay of Dustin, M.L. et al. (J. Immunol. 137:245-254 (1986); which reference is herein incorporated by reference). To perform this binding assay, human dermal fibroblasts were grown in a 96-well microtiter plate to a density of 2-8 x 10⁴ cells/well (0.32 cm²). The cells were washed twice with RPMI 1640 medium supplemented as described in Example 1. The cells were additionally washed once with Hanks Balanced Salt Solution (HBSS), 10 mM HEPES, 0.05% NaN₃ and 10% heat-inactivated fetal bovine serum. Washing with this binding buffer was done at 4°C. To each well was added 50 »l of the above-described binding buffer and 50 »l of the appropriate hybridoma supernatant with X63 and W6/32 as the negative and positive controls, respectively. After incubation for 30 minutes at 4°C, with gentle agitation, the wells were washed twice with binding buffer, and the second antibody ¹²⁵I-goat anti-mouse IgG, was added at 50 nCi in 100 »l. The ¹²⁵I-goat anti-mouse antibody was prepared by using Iodogen (Pierce) according to the method of Fraker, P.J. et al. (Biochem. Biophys. Res. Commun. 80:849 (1978)). After 30 minutes at 4°C, the wells were washed twice with 200 »l of binding buffer and the cell layer was solubilized by adding 100 »l of 0.1 N NaOH. This and a 100 »l wash were counted in a Beckman 5500 gamma counter. The specific counts per minute bound was calculated as [cpm with monoclonal antibody]-[cpm with X63]. All steps, including induction with specific reagents, were carried out in quadruplicate.

[5] = molecular target: ICAM-1-LFA-1 adhesion (Homo sapiens, UniProt P05107+P20701); conditions: Marlin, S.D., et al., cell 51:813-819 (1987); cited from earlier work
ICAM-1-LFA-1 adhesion, sequence (P20701 26-1170): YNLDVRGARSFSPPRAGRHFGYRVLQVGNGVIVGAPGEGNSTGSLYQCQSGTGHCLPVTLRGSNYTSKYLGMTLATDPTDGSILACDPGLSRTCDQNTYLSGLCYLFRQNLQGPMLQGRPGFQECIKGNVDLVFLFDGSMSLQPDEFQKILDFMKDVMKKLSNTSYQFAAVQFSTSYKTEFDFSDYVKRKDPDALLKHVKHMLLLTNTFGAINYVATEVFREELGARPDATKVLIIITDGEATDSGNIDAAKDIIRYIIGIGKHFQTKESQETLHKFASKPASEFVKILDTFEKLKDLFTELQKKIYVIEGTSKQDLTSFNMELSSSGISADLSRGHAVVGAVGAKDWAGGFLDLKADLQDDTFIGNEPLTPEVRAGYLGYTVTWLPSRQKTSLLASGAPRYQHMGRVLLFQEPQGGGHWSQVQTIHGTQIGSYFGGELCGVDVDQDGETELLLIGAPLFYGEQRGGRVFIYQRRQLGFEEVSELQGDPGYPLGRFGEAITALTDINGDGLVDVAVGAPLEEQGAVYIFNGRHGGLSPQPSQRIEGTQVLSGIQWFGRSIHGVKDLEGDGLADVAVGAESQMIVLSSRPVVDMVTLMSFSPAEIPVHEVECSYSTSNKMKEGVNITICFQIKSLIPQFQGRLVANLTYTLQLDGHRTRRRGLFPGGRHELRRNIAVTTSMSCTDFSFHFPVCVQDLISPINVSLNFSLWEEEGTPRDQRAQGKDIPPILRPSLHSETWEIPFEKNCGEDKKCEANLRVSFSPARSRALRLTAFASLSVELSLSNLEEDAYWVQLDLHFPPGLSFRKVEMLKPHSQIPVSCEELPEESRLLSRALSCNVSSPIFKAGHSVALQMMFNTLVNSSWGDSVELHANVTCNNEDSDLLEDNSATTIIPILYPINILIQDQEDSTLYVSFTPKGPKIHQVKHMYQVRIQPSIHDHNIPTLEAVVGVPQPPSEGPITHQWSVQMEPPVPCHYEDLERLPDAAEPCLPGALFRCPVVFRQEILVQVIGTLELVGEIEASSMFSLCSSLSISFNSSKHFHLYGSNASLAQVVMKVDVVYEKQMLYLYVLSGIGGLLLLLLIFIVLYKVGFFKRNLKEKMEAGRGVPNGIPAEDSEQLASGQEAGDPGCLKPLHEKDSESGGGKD
ICAM-1-LFA-1 adhesion, sequence (P05107 23-769): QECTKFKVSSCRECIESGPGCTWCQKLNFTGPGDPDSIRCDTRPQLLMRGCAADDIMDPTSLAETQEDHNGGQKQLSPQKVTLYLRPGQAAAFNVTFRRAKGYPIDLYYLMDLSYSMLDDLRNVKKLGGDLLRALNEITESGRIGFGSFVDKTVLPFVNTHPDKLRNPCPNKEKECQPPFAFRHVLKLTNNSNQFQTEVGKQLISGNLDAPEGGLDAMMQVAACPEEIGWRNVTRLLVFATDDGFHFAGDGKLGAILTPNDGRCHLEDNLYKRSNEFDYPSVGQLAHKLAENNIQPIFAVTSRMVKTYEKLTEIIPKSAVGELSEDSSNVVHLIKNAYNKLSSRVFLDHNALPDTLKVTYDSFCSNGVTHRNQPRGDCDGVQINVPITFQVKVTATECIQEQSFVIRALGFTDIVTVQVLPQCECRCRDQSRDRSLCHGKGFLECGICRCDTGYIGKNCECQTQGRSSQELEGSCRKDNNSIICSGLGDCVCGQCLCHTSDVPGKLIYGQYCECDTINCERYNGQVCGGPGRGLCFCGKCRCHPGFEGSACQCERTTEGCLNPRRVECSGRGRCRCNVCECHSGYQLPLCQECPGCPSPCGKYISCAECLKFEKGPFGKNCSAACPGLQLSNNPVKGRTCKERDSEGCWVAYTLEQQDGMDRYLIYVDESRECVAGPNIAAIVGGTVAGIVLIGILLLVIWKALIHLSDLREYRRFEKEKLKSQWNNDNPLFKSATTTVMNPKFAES

[6] = test system: human umbilical vein endothelial cells (HUVEC); assay: Radioimmune assay of ICAM-1 expression (¹²⁵I RR1/1 binding) on HUVEC; assay type: cell-based
Method: In order to measure ICAM-1 expression, a radioimmune assay was developed. In this assay, purified RR1/1 was iodinated using iodogen to a specific activity of 10 »Ci/»g. Endothelial cells were grown in 96 well plates and treated as described for each experiment. The plates were cooled at 4°C by placing in a cold room for 0.5-1 hr, not immediately on ice. The monolayers were washed 3x with cold complete media and then incubated 30 m at 4°C with ¹²⁵I RR1/1. The monolayers were then washed 3x with complete media. The bound ¹²⁵I was released using 0.1 N NaOH and counted. The specific activity of the ¹²⁵I RR1/1 was adjusted using unlabeled RR1/1 to obtain a linear signal over the range of antigen densities encountered in this study. Non-specific binding was determined in the presence of a thousand fold excess of unlabeled RR1/1 and was subtracted from total binding to yield the specific binding.

[7] = IFN-γ (10 U/ml) (18 hr), alone or + cycloheximide 20 »g/ml, actinomycin D 10 »M, mean ± SD
[8] = IL 1 (10 U/ml) (4 hr), alone or + cycloheximide 20 »g/ml, actinomycin D 10 »M, tunicamycin 2 »g/ml, mean ± SD
[9] = no cytokine, Control (4 hr) 1524 ± 140, cycloheximide 20 »g/ml, actinomycin D 10 »M, tunicamycin 2 »g/ml, mean ± SD
[10] = no cytokine, Control (4 hr) 11928 ± 600, cycloheximide 20 »g/ml, actinomycin D 10 »M, tunicamycin 2 »g/ml, mean ± SD

With `Cn1cnc([N+](=O)[O-])c1Sc1ncnc2nc[nH]c12` [Azathioprine] as the molecule, how does the “³HT Incorporation (CPM)” value [1] read?
The value was 42,710 CPM.

And the inhibition at 0.001 µg/mL [2]?
The inhibition at 0.001 µg/mL was 14%.

Which “JY cells in aggregates” value [3] does the source give for `CCCCCCCCCCCCCC(=O)O[C@@H]1[C@@H](C)[C@@]2(O)[C@@H](C=C(CO)C[C@]3(O)C(=O)C(C)=C[C@@H]23)[C@@H]2C(C)(C)[C@]12OC(C)=O` [PMA, phorbol myristate acetate] here?
The value was 87%.

Which “¹²⁵I Goat Anti-Mouse IgG Specifically Bound (cpm) anti-HLA-A,B,C” value [4, 7] does the source give for `Cc1c2oc3c(C)ccc(C(=O)N[C@@H]4C(=O)N[C@H](C(C)C)C(=O)N5CCC[C@H]5C(=O)N(C)CC(=O)N(C)[C@@H](C(C)C)C(=O)O[C@@H]4C)c3nc-2c(C(=O)N[C@@H]2C(=O)N[C@H](C(C)C)C(=O)N3CCC[C@H]3C(=O)N(C)CC(=O)N(C)[C@@H](C(C)C)C(=O)O[C@@H]2C)c(N)c1=O` [actinomycin D] (I: T[dV]P[Sar][NMeV] / II: T[dV]P[Sar][NMeV]; ester I:1-I:C, II:1-II:C; linker I:N-II:N via Actinocin(9to1)) here?
The value was 12089 ± 550 cpm.

And the “¹²⁵I Goat Anti-Mouse IgG Specifically Bound (cpm) anti-ICAM-1” value [4, 7]?
Its value is 1326 ± 186 cpm.

What about the “¹²⁵I Goat Anti-Mouse IgG Specifically Bound (cpm) anti-HLA-A,B,C” value [4, 8] of the same molecule?
The value was 12294 ± 123 cpm.

What about the “¹²⁵I Goat Anti-Mouse IgG Specifically Bound (cpm) anti-ICAM-1” value [4, 8] of the same molecule?
The value was 1613 ± 88 cpm.

And the “effects of both interleukin 1 and gamma interferon on ICAM-1 expression on fibroblasts” value ([4]; cycloheximide 20 »g/ml, actinomycin D 10 »M)?
The value was “abolish”.

And the “¹²⁵I Goat Anti-Mouse IgG Specifically Bound (cpm) anti-ICAM-1” value [4, 9]?
The value was 1590 ± 46 cpm.

What about the “¹²⁵I Goat Anti-Mouse IgG Specifically Bound (cpm) anti-HLA-A,B,C” value [4, 10] of the same molecule?
The value was 12276 ± 608 cpm.

Which results are given for `C[C@@H]1C[C@@H]([C@H](O)CC2CC(=O)NC(=O)C2)C(=O)[C@@H](C)C1` [cycloheximide]?
¹²⁵I Goat Anti-Mouse IgG Specifically Bound (cpm) anti-HLA-A,B,C [4]: 10675 ± 800 cpm and 10678 ± 471 cpm and 12676 ± 446 cpm; ¹²⁵I Goat Anti-Mouse IgG Specifically Bound (cpm) anti-ICAM-1 [4]: 1461 ± 59 cpm and 1513 ± 210 cpm and 1619 ± 381 cpm

Which “inhibit ICAM-1-LFA-1 adhesion” value [5] does the source give for GRGDSP here?
The value was “failure”.

Which “inhibit ICAM-1-LFA-1 adhesion” value [5] does the source give for GRGESP here?
The value was “failure”.

For polymyxin B, which “¹²⁵I Specifically bound (CPM)” value ([6]; HUVEC, 16 hr, 100 ng/ml rIL-1 beta, 50 ng/ml rIL-1 alpha, 50 ng/ml rTNF alpha, 10 »g/ml LPS, 10 ng/ml rIFN gamma, polymyxin B 10 »g/ml, control 603 ± 11) is on record?
The value was 480 ± 23 CPM.

And the “decreased ICAM-1 expression (basal)” value ([6]; polymyxin B at 10 »g/ml, cells in low endotoxin serum, additional decrease)?
The value was 25%.

For tunicamycin, which “¹²⁵I Goat Anti-Mouse IgG Specifically Bound (cpm) anti-HLA-A,B,C” value [4, 8] is on record?
Its value is 13434 ± 661 cpm.

And the “¹²⁵I Goat Anti-Mouse IgG Specifically Bound (cpm) anti-ICAM-1” value [4, 8]?
The value was 3084 ± 113 cpm.

And the “inhibited the interleukin 1 effect on ICAM-1 expression” value ([4]; fibroblasts, tunicamycin 2 »g/ml)?
Its value is 43%.

What about the “¹²⁵I Goat Anti-Mouse IgG Specifically Bound (cpm) anti-ICAM-1” value [4, 9] of the same molecule?
Its value is 1461 ± 176 cpm.

What about the “¹²⁵I Goat Anti-Mouse IgG Specifically Bound (cpm) anti-HLA-A,B,C” value [4, 10] of the same molecule?
The value was 12340 ± 940 cpm.
